From ChEMBL document CHEMBL1140691, “New type of anti-diabetic compounds from the processed leaves of Hydrangea macrophylla var. thunbergii (Hydrangeae Dulcis Folium)” (2007)

How the values were obtained:
Format in all cases: functional
[1] = system: 3T3-L1; assay: Increase in triglyceride levels in mouse 3T3L1 cells at 3 uM
[2] = system: 3T3-L1; assay: Increase in triglyceride levels in mouse 3T3L1 cells at 10 uM
[3] = system: 3T3-L1; assay: Increase in triglyceride levels in mouse 3T3L1 cells at 1 uM
[4] = system: 3T3-L1; assay: Increase in triglyceride levels in mouse 3T3L1 cells at 30 uM
[5] = system: 3T3-L1; assay: Increase in triglyceride levels in mouse 3T3L1 cells at 100 uM
[6] = system: Mus musculus; assay: Decrease in blood glucose levels in KKAy mouse at 200 mg/kg, po after 2 weeks
[7] = system: Mus musculus; assay: Effect on blood triglyceride levels in KKAy mouse at 100 mg/kg, po after 2 weeks
[8] = system: Mus musculus; assay: Decrease in blood glucose levels in KKAy mouse at 100 mg/kg, po
[9] = system: Mus musculus; assay: Decrease in blood free fatty acid levels in KKAy mouse at 200 mg/kg, po
[10] = system: 3T3-L1; assay: Increase in adiponectin release in mouse 3T3L1 cells at 10 uM on day 4 by ELISA
[11] = system: Mus musculus; assay: Decrease in blood free fatty acid levels in KKAy mouse at 200 mg/kg, po after 2 weeks
[12] = system: Mus musculus; assay: Effect on blood triglyceride levels in KKAy mouse at 200 mg/kg, po
[13] = system: 3T3-L1; assay: Increase in 2-Deoxyglucose-uptake in mouse 3T3L1 cells at 1 uM by liquid scintillation counter
[14] = system: 3T3-L1; assay: Decrease in IL6 gene expression in mouse 3T3L1 cells at 100 uM after 2 days relative to beta-actin mRNA expression
[15] = system: Mus musculus; assay: Decrease in blood glucose levels in KKAy mouse at 200 mg/kg, po after 1 week
[16] = system: Mus musculus; assay: Decrease in blood free fatty acid levels in KKAy mouse at 200 mg/kg, po after 1 week
[17] = system: Mus musculus; assay: Decrease in blood glucose levels in KKAy mouse at 100 mg/kg, po after 1 week
[18] = system: Mus musculus; assay: Effect on blood triglyceride levels in KKAy mouse at 100 mg/kg, po after 1 week
[19] = system: Mus musculus; assay: Decrease in blood free fatty acid levels in KKAy mouse at 100 mg/kg, po
[20] = system: 3T3-L1; assay: Decrease in IL6 gene expression in mouse 3T3L1 cells at 30 uM after 2 days relative to beta-actin mRNA expression
[21] = system: Mus musculus; assay: Decrease in blood glucose levels in KKAy mouse at 200 mg/kg, po
[22] = system: 3T3-L1; assay: Increase in adiponectin release in mouse 3T3L1 cells at 100 uM on day 4 by ELISA
[23] = system: 3T3-L1; assay: Increase in adiponectin release in mouse 3T3L1 cells at 30 uM on day 6 by ELISA
[24] = system: 3T3-L1; assay: Increase in 2-Deoxyglucose-uptake in mouse 3T3L1 cells at 3 uM by liquid scintillation counter
[25] = system: 3T3-L1; assay: Increase in GLUT4 gene expression in mouse 3T3L1 cells at 100 uM after 2 days relative to beta-actin mRNA expression
[26] = system: 3T3-L1; assay: Increase in adiponectin release in mouse 3T3L1 cells at 3 uM on day 6 by ELISA
[27] = system: 3T3-L1; assay: Increase in adiponectin release in mouse 3T3L1 cells at 100 uM on day 6 by ELISA
[28] = system: Mus musculus; assay: Effect on blood triglyceride levels in KKAy mouse at 100 mg/kg, po
[29] = system: 3T3-L1; assay: Increase in 2-Deoxyglucose-uptake in mouse 3T3L1 cells at 10 uM by liquid scintillation counter
[30] = system: 3T3-L1; assay: Increase in adiponectin release in mouse 3T3L1 cells at 30 uM on day 4 by ELISA
[31] = system: 3T3-L1; assay: Increase in PPARgamma2 gene expression in mouse 3T3L1 cells at 100 uM after 2 days relative to beta-actin mRNA expression
[32] = system: Mus musculus; assay: Effect on blood triglyceride levels in KKAy mouse at 200 mg/kg, po after 2 weeks
[33] = system: Mus musculus; assay: Decrease in blood glucose levels in KKAy mouse at 100 mg/kg, po after 2 weeks
[34] = system: 3T3-L1; assay: Increase in adiponectin release in mouse 3T3L1 cells at 10 uM on day 6 by ELISA
[35] = system: 3T3-L1; assay: Increase in adiponectin gene expression in mouse 3T3L1 cells at 100 uM after 2 days relative to beta-actin mRNA expression
[36] = system: 3T3-L1; assay: Increase in PPARgamma2 gene expression in mouse 3T3L1 cells at 30 uM after 2 days relative to beta-actin mRNA expression
[37] = system: 3T3-L1; assay: Increase in adiponectin release in mouse 3T3L1 cells at 3 uM on day 4 by ELISA
[38] = system: Mus musculus; assay: Decrease in blood free fatty acid levels in KKAy mouse at 100 mg/kg, po after 2 weeks
[39] = system: Mus musculus; assay: Effect on blood triglyceride levels in KKAy mouse at 200 mg/kg, po after 1 week
[40] = system: 3T3-L1; assay: Increase in 2-Deoxyglucose-uptake in mouse 3T3L1 cells at 100 uM by liquid scintillation counter
[41] = system: 3T3-L1; assay: Increase in 2-Deoxyglucose-uptake in mouse 3T3L1 cells at 30 uM by liquid scintillation counter
[42] = system: Mus musculus; assay: Decrease in blood free fatty acid levels in KKAy mouse at 100 mg/kg, po after 1 week
[43] = system: 3T3-L1; assay: Increase in GLUT4 gene expression in mouse 3T3L1 cells at 30 uM after 2 days relative to beta-actin mRNA expression
[44] = system: 3T3-L1; assay: Increase in adiponectin gene expression in mouse 3T3L1 cells at 30 uM after 2 days relative to beta-actin mRNA expression

COc1ccc([C@H]2Cc3cccc(O[C@@H]4O[C@H](CO)[C@@H](O)[C@H](O)[C@H]4O)c3C(=O)O2)cc1O
Activity [1]: 8.7% | Activity [2]: -1.5% | Activity [3]: 3.6% | Activity [4]: -3% | Activity [5]: 6.6%

O=C1OC(c2ccc(O)cc2)Cc2cccc(O[C@@H]3O[C@H](CO)[C@@H](O)[C@H](O)[C@H]3O)c21 (some centres undefined)
Activity [1]: 11.2% | Activity [2]: 1.2% | Activity [3]: 11.1% | Activity [4]: 10.5% | Activity [5]: 9.2%

O=C(O)c1c(O)cccc1/C=C/c1ccc(O)cc1 [HYDRANGEAIC ACID]
Activity [1]: 11.7% | Activity [2]: 11.1% | Activity [3]: 2.2% | Activity [4]: 27.3% | Activity [5]: 41.2%

O=C1OC(c2ccc(O)cc2)Cc2cccc(O)c21 (centres undefined) [HYDRANGENOL]
Activity [6]: 411.2 mg/dL | Activity [7]: 483.9 mg/dL | Activity [8]: 336.3 mg/dL | Activity [1]: 19.2% | Activity [2]: 17.7% | Activity [9]: 1.01 mEq/L | Activity [10]: 22.8 ng/mL | Activity [11]: 0.89 mEq/L | Activity [12]: 362.8 mg/dL | Activity [13]: 117% | Ratio [14]: 0.51 | Activity [15]: 397.5 mg/dL | Activity [16]: 0.81 mEq/L | Activity [3]: 14.4% | Activity [4]: 29.9% | Activity [17]: 389.1 mg/dL | Activity [18]: 429.3 mg/dL | Activity [19]: 0.96 mEq/L | Ratio [20]: 0.78 | Activity [21]: 336 mg/dL | Activity [22]: 33 ng/mL | Activity [23]: 94 ng/mL | Activity [24]: 160% | Ratio [25]: 1.38 | Activity [26]: 68.2 ng/mL | Activity [27]: 99.8 ng/mL | Activity [28]: 332.1 mg/dL | Activity [29]: 221% | Activity [30]: 27.4 ng/mL | Ratio [31]: 2.65 | Activity [32]: 428.8 mg/dL | Activity [33]: 422.7 mg/dL | Activity [34]: 84.2 ng/mL | Ratio [35]: 2.46 | Ratio [36]: 1.92 | Activity [37]: 22.3 ng/mL | Activity [38]: 1.07 mEq/L | Activity [39]: 413.8 mg/dL | Activity [40]: 302% | Activity [5]: 41.3% | Activity [41]: 245% | Activity [42]: 0.91 mEq/L | Ratio [43]: 1.12 | Ratio [44]: 1.98

COc1ccc([C@H]2Cc3cccc(O)c3C(=O)O2)cc1O [PHYLLODULCIN]
Activity [1]: 12.8% | Activity [2]: 9.8% | Activity [3]: -0.7% | Activity [4]: 23.8% | Activity [5]: 20.3%

O=c1oc(-c2ccc(O)c(O)c2)cc2cccc(O)c12 [THUNBERGINOL A]
Activity [1]: 17.5% | Activity [2]: 19.6% | Activity [3]: 8% | Activity [4]: 15.7% | Activity [5]: -27.6%
